Source: US20220160820A1, “MODULATORS OF COMPLEMENT ACTIVITY” (Ra Pharmaceuticals, Inc., priority 2019, published 2022)

What was measured:
[1] = system: human C5 polymorphisms (including p.R885>H/C); assay: Binding and inhibitory activities in presence of C5 polymorphisms; conditions: presence of clinically-relevant human C5 polymorphisms (including p.R885>H/C)
[2] = target: surface-bound C5b-9 or soluble membrane attack complex (sC5b-9) (Homo sapiens, UniProt P01031); assay: Binding to C5b-9 / soluble membrane attack complex
[3] = system: Co-cultures of human myotubes and neuroblastoma cells; assay: In vitro NMJ model: autoantibody-induced C5b-9 deposition by immunofluorescence; type: cell-based; conditions: 10 μM zilucoplan; anti-AChR 637 IgG1; human sera; anti-C5b-9 immunofluorescence
Procedure: Co-cultures of human myotubes and neuroblastoma cells were prepared and cultured with human sera as an in vitro NMJ model. […] Subsequent deposition of C5b-9 was observed by immunofluorescence using an anti-C5b-9 antibody (aE11, AbCam. Cambridge. UK).

[4] = In-vitro permeability, basement membrane model; type: in vitro ADME
Text: In some embodiments, the present disclosure provides methods of inhibiting C5 activity in a tissue by contacting the tissue with a tissue-penetrating C5 inhibitor. As used herein, the term “tissue-penetrating” refers to a property characterized by tissue permeability. […] Tissue penetration may be assessed by ability to cross basement membranes. As used herein, the term “basement membrane” refers to an extracellular matrix (ECM) protein layer separating endothelial cells from underlying tissues. Tissue penetration assessments may be done in vivo or in vitro and may include the use of basement membrane models. Such models may include measuring compound diffusion across artificial basement membranes. Such models may include the use of upper and lower reservoirs separated by an artificial basement membrane. Artificial basement membranes may include any of the ECM gel membranes described in Arends, F. et al. 2016. IntechOpen, DOI: 10.5772/62519, the contents of which are herein incorporated by reference in their entirety. ECM gel membranes may be prepared to include matrix components mimicking those found in the basal lamina of neuromuscular junctions.
The ECM gel membrane was prepared to include matrix components mimicking those found in the basal lamina of neuromuscular junctions.

[5] = Quantitative whole body analysis (QWBA) of radiolabeled zilucoplan; type: in vivo; conditions: rats, 24 hours
Procedure: In some embodiments, compound permeability may be determined using quantitative whole body analysis (QWBA). QWBA is a form of analysis that uses radiography to assess distribution of radiolabeled analytes. In some embodiments, radiolabeled compounds are administered to subjects and tissue distribution of the compounds is analyzed over time.
Enhanced permeability of zilucoplan was confirmed by quantitative whole body analysis (QWBA). […] Area under the concentration curve (AUC) for each organ or tissue analyzed was expressed as a percentage of plasma AUC to yield a biodistribution value, presented in Table 2 below. […] 5:297-305, are provided for comparison.

[6] = In vivo drug-drug interaction study with cyclosporine A; conditions: following cyclosporine A administration; NHPs
[7] = In vivo drug-drug interaction study with anti-FcRn monoclonal antibody DX-2507; conditions: concomitant dosing of anti-FcRn monoclonal antibody DX-2507; Cynomolgus monkeys
Text: (§1) By inhibiting FcRN, DX-2504 inhibits Fc-mediated recycling, thereby reducing the half-life of IgG antibodies. Administration of DX-2504 serves as a model for intravenous immunoglobulin (IVIG) treatment, which reduces the half-life of IgG antibodies by overwhelming the Fc recycling mechanism with large doses of immunoglobulin.

[8] = Zilucoplan levels in a patient receiving concomitant IVIG; type: in vivo, human; conditions: patient receiving concomitant therapeutic doses of IVIG
Text: as §1

CCCCCCCCCCCCCCCC(=O)N[C@@H](CCC(=O)NCCOCCOCCOCCOCCOCCOCCOCCOCCOCCOCCOCCOCCOCCOCCOCCOCCOCCOCCOCCOCCOCCOCCOCCOCCCCC(=O)NCCCC[C@H](NC(=O)[C@@H](NC(=O)[C@@H]1CCCN1C(=O)[C@H](Cc1ccc(O)cc1)NC(=O)[C@H](CCC(=O)[O-])NC(=O)[C@H](Cc1c[nH]c2ncccc12)NC(=O)[C@H](Cc1ccc(O)cc1)NC(=O)[C@@H](NC(=O)[C@H](CC(=O)[O-])N(C)C(=O)[C@@H]1CC(=O)NCCCC[C@H](NC(C)=O)C(=O)N[C@@H](C(C)C)C(=O)N[C@@H](CCC(=O)O)C(=O)N[C@@H](CCCNC(=N)N)C(=O)N[C@@H](Cc2ccccc2)C(=O)N1)C(C)(C)C)C1CCCCC1)C(=O)[O-])C(=O)[O-].[Na+].[Na+].[Na+].[Na+] [zilucoplan]
binding and inhibitory activities [1]: not affected
binding to surface-bound C5b-9 or sC5b-9 [2]: does not bind
C5b-9 deposition [3]: absent
fraction introduced to upper reservoir diffused to lower reservoir ([4]; 24 hours): more than 60%
fraction introduced to upper reservoir diffused to lower reservoir ([4]; after 12 hours): Greater than 20%
Zilucoplan biodistribution % (tissue AUC as percentage of plasma AUC) ([5]; Bone): 15.3%
Zilucoplan biodistribution % (tissue AUC as percentage of plasma AUC) ([5]; Brain): 0.9%
Zilucoplan biodistribution % (tissue AUC as percentage of plasma AUC) ([5]; Fat): 16.2%
Zilucoplan biodistribution % (tissue AUC as percentage of plasma AUC) ([5]; Heart): 22.9%
Zilucoplan biodistribution % (tissue AUC as percentage of plasma AUC) ([5]; Large Intestine): 21.7%
Zilucoplan biodistribution % (tissue AUC as percentage of plasma AUC) ([5]; Liver): 27.1%
Zilucoplan biodistribution % (tissue AUC as percentage of plasma AUC) ([5]; Lung): 37.5%
Zilucoplan biodistribution % (tissue AUC as percentage of plasma AUC) ([5]; Lymph nodes): 12.8%
Zilucoplan biodistribution % (tissue AUC as percentage of plasma AUC) ([5]; Muscle): 7.0%
Zilucoplan biodistribution % (tissue AUC as percentage of plasma AUC) ([5]; Pancreas): 15.8%
Zilucoplan biodistribution % (tissue AUC as percentage of plasma AUC) ([5]; Small Intestine): 10.9%
Zilucoplan biodistribution % (tissue AUC as percentage of plasma AUC) ([5]; Spleen): 15.5%
Zilucoplan biodistribution % (tissue AUC as percentage of plasma AUC) ([5]; Stomach): 8.5%
Zilucoplan biodistribution % (tissue AUC as percentage of plasma AUC) ([5]; Testes): 15.5%
Zilucoplan biodistribution % (tissue AUC as percentage of plasma AUC) ([5]; Thymus): 7.8%
effects on zilucoplan exposure [6]: No effects
Zilucoplan pharmacodynamics [7]: did not change
Zilucoplan pharmacokinetics [7]: did not change
changes in zilucoplan levels [8]: no changes
